Reference: ChEMBL document CHEMBL3124838, “Discovery of 6-aryl-azabenzimidazoles that inhibit the TBK1/IKK-ε kinases” (Bioorg Med Chem Lett, 2014)

Columns and labels:
[1] = biological target: MAP kinase-activated protein kinase 2 (Homo sapiens) (UniProt P49137); assay: Inhibition of human MAPKAP-K2 assessed as residual activity at 1 uM relative to control
[2] = system: Epidermal growth factor receptor (Homo sapiens), P00533 [L858R,T790M]; assay: Inhibition of human EGFR T790M/L858R double mutant assessed as residual activity at 1 uM relative to control; format: protein assay
[3] = biological target: Insulin receptor (Homo sapiens) (UniProt P06213); assay: Inhibition of human IR assessed as residual activity at 1 uM relative to control
[4] = biological target: T1, Phosphatidylinositol 5-phosphate 4-kinase type-2 alpha (Homo sapiens) (UniProt P48426); assay: Inhibition of human PIP4K2alpha assessed as residual activity at 1 uM relative to control
T1 sequence (whole entry): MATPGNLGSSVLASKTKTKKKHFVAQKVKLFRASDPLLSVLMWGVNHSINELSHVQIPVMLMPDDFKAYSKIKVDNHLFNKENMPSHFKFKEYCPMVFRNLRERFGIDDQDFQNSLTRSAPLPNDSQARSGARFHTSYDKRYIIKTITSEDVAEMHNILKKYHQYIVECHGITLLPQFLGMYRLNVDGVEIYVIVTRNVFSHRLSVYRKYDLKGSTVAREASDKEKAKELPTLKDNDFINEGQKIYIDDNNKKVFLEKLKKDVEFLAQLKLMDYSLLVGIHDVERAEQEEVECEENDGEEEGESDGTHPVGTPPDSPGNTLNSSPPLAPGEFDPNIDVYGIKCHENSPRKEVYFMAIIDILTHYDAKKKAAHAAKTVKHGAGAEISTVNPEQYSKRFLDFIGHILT

[5] = biological target: Tyrosine-protein kinase Fes/Fps (Homo sapiens) (UniProt P07332); assay: Inhibition of human FES assessed as residual activity at 1 uM relative to control
[6] = biological target: T2, Serine/threonine-protein kinase Sgk1 (Homo sapiens) (UniProt O00141); assay: Inhibition of human SGK assessed as residual activity at 1 uM relative to control
T2 sequence (whole entry): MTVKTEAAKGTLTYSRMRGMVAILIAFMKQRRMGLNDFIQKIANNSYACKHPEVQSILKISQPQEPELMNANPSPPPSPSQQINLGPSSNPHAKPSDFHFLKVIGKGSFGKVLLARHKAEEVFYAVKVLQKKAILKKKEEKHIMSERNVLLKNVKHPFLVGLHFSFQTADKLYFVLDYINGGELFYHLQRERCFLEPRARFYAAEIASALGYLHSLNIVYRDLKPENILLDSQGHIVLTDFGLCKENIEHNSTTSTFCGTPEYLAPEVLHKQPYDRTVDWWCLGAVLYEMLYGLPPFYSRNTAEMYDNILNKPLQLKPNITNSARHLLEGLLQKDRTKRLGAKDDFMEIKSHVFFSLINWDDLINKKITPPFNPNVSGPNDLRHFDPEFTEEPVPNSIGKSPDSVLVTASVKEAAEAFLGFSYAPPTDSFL

[7] = biological target: Platelet-derived growth factor receptor beta (Homo sapiens) (UniProt P09619); assay: Inhibition of human PDGFRbeta assessed as residual activity at 1 uM relative to control
[8] = biological target: Focal adhesion kinase 1 (Homo sapiens) (UniProt Q05397); assay: Inhibition of human FAK assessed as residual activity at 1 uM relative to control
[9] = biological target: T3, Ephrin type-B receptor 4 (Homo sapiens) (UniProt P54760); assay: Inhibition of human EPHB4 assessed as residual activity at 1 uM relative to control
T3 sequence (whole entry): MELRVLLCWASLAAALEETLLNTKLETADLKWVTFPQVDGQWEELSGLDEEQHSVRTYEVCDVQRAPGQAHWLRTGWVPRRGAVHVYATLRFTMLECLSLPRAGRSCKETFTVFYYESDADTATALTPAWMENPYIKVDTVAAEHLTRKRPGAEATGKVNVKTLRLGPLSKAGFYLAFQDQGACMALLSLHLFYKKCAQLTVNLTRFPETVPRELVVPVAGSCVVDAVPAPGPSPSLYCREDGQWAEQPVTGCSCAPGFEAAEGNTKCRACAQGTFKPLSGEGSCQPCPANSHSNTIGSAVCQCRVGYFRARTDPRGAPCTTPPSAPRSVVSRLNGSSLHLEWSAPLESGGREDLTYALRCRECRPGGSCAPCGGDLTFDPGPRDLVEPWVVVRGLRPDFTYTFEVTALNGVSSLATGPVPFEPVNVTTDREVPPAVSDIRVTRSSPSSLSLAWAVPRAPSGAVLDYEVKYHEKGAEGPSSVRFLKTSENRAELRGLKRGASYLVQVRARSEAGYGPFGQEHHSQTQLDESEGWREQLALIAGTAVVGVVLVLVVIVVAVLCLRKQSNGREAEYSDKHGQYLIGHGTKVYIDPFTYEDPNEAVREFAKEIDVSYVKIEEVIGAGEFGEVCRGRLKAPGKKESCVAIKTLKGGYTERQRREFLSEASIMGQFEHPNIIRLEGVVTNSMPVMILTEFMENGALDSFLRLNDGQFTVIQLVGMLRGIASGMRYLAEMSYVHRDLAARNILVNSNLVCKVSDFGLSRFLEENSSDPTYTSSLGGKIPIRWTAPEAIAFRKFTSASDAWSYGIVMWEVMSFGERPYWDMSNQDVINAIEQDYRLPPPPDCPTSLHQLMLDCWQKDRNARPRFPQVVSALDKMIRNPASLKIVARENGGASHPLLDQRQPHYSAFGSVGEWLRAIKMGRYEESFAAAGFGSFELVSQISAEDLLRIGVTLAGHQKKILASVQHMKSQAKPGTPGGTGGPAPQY

[10] = biological target: Ephrin type-A receptor 5 (Homo sapiens) (UniProt P54756); assay: Inhibition of human EPHA5 assessed as residual activity at 1 uM relative to control
[11] = biological target: High affinity nerve growth factor receptor (Homo sapiens) (UniProt P04629); assay: Inhibition of human TRKA assessed as residual activity at 1 uM relative to control
[12] = biological target: Serine/threonine-protein kinase MARK1 (Homo sapiens) (UniProt Q9P0L2); assay: Inhibition of human MARK1 assessed as residual activity at 1 uM relative to control
[13] = system: Proto-oncogene tyrosine-protein kinase receptor Ret (Homo sapiens), P07949 [V804M]; assay: Inhibition of human RET V804M mutant assessed as residual activity at 1 uM relative to control
[14] = biological target: Glycogen synthase kinase-3 beta (Homo sapiens) (UniProt P49841); assay: Inhibition of human GSK3beta assessed as residual activity at 1 uM relative to control
[15] = biological target: Tyrosine-protein kinase JAK2 (Homo sapiens) (UniProt O60674); assay: Inhibition of human JAK2 assessed as residual activity at 1 uM relative to control
[16] = biological target: ALK tyrosine kinase receptor (Homo sapiens) (UniProt Q9UM73); assay: Inhibition of human ALK assessed as residual activity at 1 uM relative to control
[17] = biological target: Tyrosine-protein kinase BTK (Homo sapiens) (UniProt Q06187); assay: Inhibition of human BTK assessed as residual activity at 1 uM relative to control

Focal adhesion kinase 1 (Homo sapiens), sequence (Q05397 2-1052 limits assumed): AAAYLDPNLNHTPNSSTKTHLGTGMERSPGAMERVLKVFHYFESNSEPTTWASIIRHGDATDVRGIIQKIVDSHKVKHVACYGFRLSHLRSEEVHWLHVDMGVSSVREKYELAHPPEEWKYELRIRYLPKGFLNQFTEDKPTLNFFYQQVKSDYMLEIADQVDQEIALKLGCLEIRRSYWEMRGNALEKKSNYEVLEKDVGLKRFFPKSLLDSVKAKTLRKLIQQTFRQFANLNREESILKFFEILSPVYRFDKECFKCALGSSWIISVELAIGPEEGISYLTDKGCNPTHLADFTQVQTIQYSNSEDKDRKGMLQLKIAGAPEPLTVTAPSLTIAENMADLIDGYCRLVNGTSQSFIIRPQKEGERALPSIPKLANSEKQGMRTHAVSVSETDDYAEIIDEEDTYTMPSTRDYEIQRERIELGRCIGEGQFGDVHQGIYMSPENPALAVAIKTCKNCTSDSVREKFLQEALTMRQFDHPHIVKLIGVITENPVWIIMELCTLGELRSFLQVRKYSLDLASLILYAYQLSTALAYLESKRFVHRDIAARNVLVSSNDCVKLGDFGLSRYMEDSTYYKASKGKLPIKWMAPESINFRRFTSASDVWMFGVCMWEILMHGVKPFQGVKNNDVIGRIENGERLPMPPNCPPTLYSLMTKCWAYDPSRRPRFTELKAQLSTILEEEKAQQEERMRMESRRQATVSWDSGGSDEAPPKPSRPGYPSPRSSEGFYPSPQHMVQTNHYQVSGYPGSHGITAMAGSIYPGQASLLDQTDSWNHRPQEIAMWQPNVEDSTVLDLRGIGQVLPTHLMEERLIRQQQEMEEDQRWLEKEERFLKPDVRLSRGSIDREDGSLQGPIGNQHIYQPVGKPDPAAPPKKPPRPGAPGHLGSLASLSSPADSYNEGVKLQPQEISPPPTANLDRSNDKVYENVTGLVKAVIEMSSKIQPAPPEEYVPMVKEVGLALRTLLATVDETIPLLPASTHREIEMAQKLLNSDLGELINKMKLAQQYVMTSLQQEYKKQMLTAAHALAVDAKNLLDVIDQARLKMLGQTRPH
Glycogen synthase kinase-3 beta (Homo sapiens), sequence (P49841 whole entry, looked up): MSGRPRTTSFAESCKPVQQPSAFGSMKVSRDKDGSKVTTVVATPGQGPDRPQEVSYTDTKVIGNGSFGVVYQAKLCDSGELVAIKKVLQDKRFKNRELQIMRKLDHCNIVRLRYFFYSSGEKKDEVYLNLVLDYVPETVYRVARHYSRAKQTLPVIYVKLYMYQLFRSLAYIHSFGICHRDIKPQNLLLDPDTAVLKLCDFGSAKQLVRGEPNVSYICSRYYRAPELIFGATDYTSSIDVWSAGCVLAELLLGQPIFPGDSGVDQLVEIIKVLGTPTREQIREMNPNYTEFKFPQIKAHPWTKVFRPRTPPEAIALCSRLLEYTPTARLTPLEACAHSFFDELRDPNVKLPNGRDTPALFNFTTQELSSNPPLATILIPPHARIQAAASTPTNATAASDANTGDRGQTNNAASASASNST
Platelet-derived growth factor receptor beta (Homo sapiens), sequence (P09619 whole entry): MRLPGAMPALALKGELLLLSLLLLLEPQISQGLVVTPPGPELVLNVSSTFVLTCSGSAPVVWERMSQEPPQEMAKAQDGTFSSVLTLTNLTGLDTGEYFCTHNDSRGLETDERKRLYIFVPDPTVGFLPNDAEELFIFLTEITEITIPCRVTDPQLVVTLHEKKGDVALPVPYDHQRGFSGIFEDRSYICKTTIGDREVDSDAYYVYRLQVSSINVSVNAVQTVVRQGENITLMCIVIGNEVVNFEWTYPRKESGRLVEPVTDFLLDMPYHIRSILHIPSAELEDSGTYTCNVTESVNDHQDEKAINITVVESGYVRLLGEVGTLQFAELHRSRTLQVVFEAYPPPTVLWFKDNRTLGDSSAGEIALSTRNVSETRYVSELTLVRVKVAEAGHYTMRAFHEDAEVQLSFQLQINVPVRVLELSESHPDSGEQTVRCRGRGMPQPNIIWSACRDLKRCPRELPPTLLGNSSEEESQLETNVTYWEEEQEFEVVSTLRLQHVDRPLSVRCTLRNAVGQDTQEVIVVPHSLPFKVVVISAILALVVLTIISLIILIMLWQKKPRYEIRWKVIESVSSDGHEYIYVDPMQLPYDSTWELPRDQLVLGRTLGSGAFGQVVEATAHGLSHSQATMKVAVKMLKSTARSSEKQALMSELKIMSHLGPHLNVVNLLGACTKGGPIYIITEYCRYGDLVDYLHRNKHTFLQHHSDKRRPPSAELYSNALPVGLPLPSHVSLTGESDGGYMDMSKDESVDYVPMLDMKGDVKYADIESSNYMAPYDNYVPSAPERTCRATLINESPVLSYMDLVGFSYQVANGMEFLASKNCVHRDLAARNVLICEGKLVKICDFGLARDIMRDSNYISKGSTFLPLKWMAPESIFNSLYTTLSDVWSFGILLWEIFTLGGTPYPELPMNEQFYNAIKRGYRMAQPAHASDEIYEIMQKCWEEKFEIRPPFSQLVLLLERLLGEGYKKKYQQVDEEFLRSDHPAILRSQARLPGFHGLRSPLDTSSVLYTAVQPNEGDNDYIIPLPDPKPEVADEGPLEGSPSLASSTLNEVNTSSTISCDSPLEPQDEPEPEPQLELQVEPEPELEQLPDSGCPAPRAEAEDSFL
Serine/threonine-protein kinase MARK1 (Homo sapiens), sequence (Q9P0L2 whole entry, looked up): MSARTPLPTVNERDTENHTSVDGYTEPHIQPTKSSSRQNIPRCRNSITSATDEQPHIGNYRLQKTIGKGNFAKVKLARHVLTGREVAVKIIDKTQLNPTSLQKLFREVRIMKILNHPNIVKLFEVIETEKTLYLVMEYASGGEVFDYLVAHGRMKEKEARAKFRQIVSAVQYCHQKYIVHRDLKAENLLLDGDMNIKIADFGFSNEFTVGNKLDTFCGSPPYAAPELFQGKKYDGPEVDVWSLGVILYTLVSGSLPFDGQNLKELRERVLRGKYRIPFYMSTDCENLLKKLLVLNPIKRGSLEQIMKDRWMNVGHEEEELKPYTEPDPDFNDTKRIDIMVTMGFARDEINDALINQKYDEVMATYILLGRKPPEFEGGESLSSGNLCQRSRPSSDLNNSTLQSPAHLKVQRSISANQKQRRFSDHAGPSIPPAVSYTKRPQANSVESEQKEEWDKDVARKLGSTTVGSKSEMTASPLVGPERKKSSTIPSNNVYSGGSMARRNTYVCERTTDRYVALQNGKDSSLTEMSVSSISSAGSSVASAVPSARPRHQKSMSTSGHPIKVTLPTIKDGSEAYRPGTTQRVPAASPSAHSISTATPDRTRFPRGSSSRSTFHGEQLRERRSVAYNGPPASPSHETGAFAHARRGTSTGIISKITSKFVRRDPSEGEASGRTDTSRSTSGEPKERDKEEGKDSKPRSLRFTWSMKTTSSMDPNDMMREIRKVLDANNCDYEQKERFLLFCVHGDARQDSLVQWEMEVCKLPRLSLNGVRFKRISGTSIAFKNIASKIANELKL
Tyrosine-protein kinase JAK2 (Homo sapiens), sequence (O60674 whole entry): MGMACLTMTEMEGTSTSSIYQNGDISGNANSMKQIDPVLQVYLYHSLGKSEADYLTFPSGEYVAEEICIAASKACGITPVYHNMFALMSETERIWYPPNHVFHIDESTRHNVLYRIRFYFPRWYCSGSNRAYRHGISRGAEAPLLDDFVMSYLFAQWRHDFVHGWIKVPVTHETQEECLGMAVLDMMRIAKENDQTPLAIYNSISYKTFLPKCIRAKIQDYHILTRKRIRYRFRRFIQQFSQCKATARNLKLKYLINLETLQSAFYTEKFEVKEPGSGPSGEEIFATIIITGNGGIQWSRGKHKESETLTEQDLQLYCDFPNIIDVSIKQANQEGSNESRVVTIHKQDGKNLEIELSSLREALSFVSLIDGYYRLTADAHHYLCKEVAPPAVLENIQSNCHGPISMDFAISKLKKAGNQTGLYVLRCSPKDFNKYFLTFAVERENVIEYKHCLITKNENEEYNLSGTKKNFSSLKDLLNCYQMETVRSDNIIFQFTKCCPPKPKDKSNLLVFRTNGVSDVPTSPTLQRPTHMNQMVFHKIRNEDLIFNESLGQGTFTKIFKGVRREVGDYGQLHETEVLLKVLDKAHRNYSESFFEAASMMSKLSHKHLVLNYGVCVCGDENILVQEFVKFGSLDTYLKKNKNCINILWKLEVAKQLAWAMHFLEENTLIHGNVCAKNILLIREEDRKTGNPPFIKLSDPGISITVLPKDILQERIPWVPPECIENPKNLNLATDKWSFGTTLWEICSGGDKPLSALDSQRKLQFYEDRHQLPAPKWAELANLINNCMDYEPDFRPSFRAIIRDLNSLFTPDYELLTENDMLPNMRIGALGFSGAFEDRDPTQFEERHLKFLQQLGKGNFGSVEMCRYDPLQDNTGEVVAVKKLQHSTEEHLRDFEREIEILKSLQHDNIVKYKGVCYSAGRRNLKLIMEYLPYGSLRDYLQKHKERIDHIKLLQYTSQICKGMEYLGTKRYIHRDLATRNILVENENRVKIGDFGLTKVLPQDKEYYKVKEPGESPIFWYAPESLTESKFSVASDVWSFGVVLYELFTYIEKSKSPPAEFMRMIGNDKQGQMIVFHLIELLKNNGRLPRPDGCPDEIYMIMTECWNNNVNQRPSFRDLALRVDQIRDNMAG
MAP kinase-activated protein kinase 2 (Homo sapiens), sequence (P49137 whole entry, looked up): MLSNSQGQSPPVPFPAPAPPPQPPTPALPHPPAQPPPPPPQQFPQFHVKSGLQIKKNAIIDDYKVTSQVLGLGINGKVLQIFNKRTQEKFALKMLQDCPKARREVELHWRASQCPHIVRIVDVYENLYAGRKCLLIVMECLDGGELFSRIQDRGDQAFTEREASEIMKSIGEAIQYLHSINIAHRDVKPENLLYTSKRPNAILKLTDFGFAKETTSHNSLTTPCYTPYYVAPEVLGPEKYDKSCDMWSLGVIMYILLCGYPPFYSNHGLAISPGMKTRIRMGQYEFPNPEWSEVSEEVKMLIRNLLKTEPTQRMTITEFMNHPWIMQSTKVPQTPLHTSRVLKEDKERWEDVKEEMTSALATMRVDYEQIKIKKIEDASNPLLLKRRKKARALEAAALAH

| Activity [1] | Activity [2] | Activity [3] | Activity [4] | Activity [5] | Activity [6] | Activity [7] | Activity [8] | Activity [9] | Activity [10] | Activity [11] | Activity [12] | Activity [13] | Activity [14] | Activity [15] | Activity [16] | Activity [17] | Structure (SMILES) |
| --- | --- | --- | --- | --- | --- | --- | --- | --- | --- | --- | --- | --- | --- | --- | --- | --- | --- |
| 101% | 90% | 102% | 85% | 92% | 102% | 64% | 91% | 74% | 72% | 59% | 48% | 15% | 102% | 108% | 99% | 112% | COc1ccc(-c2nc3cc(-c4csc(C(=O)NCC(C)C)c4)cnc3[nH]2)cc1 |
| 94% | 76% | 80% | 95% | 92% | 78% | 70% | 90% | 95% | 76% | 67% | 61% | 9% | 83% | 100% | 88% | 93% | COc1ccc(-c2nc3cc(-c4csc(C(=O)NCCC(C)C)c4)cnc3[nH]2)cc1 |
| 98% | 94% | 92% | 87% | 85% | 82% | 82% | 80% | 79% | 77% | 77% | 58% | 24% | 106% | 105% | 101% | 100% | COc1ccc(-c2nc3cc(-c4csc(C(=O)NCC(C)(C)C)c4)cnc3[nH]2)cc1 |
